Laboratory results taken from ChEMBL document CHEMBL1201862, “PubChem BioAssay data set” (2004).
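Tested at 5 concentrations; 48 h exposure; 96-well plates; endpoints linearly interpolated, else capped at highest concentration. Here, GI50 denotes the concentration required for 50% inhibition of growth.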 Calls of active or inactive are those of the source. No stated cut-off is given here; in the data, active = GI50 up to about 1.1 µM and inactive = higher.

Legend:
Assay in all cases: NCI tumour cell line growth inhibition, 48 h
KM12 = system: KM12
MCF7 = system: MCF7
HCT-116 = system: HCT-116
NCI-H226 = system: NCI-H226
OVCAR-5 = system: OVCAR-5
UACC-62 = system: UACC-62
SK-OV-3 = system: SK-OV-3
786-0 = system: 786-0
M14 = system: M14
SF-539 = system: SF-539
TK-10 = system: TK-10
HL-60 = system: HL-60
SF-268 = system: SF-268
SK-MEL-28 = system: SK-MEL-28
SW-620 = system: SW-620
HOP-92 = system: HOP-92
HCT-15 = system: HCT-15
RPMI-8226 = system: RPMI-8226
SF-295 = system: SF-295
ACHN = system: ACHN

SMILES | GI50 (KM12) | GI50 (MCF7) | GI50 (HCT-116) | GI50 (NCI-H226) | GI50 (OVCAR-5) | GI50 (UACC-62) | GI50 (SK-OV-3) | GI50 (786-0) | GI50 (M14) | GI50 (SF-539) | GI50 (TK-10) | GI50 (HL-60) | GI50 (SF-268) | GI50 (SK-MEL-28) | GI50 (SW-620) | GI50 (HOP-92) | GI50 (HCT-15) [µM] | GI50 (RPMI-8226) | GI50 (SF-295) | GI50 (ACHN)
CC(C)CC1C(=O)NCCC(NC(=O)C(Cc2ccc(OC(C)(C)C)cc2)NC(=O)OC(C)(C)C)C(=O)NC(Cc2ccccc2)C(=O)NC(Cc2ccccc2)NC1=O (stereo not given) | 43.6 µM (inactive) | 17 µM (inactive) | 4.05 µM (inactive) | 5.06 µM (inactive) | 6.25 µM (inactive) | 6.35 µM (inactive) | 22 µM (inactive) | 1.71 µM (inactive) | 12.6 µM (inactive) | 23.2 µM (inactive) | 11.7 µM (inactive) | 8.36 µM (inactive) | 4.51 µM (inactive) | 18.3 µM (inactive) | 2.54 µM (inactive) | 11.2 µM (inactive) | > 100 | 9.75 µM (inactive) | 5.75 µM (inactive) | 7.89 µM (inactive)
C=CC(=O)c1ccc2c(c1)OCCOCCOCCOCCOCCO2 | > 100 µM (inactive) | 16 µM (inactive) | 25.9 µM (inactive) | > 100 µM (inactive) | 33.4 µM (inactive) | 30.3 µM (inactive) | > 100 µM (inactive) | 16.1 µM (inactive) | 20.3 µM (inactive) | 17.7 µM (inactive) | 17 µM (inactive) | > 58.6 µM (inactive) | > 55.6 µM (inactive) | 18.7 µM (inactive) | 18.8 µM (inactive) | 17 µM (inactive) | 21.6 | > 38.8 µM (inactive) | > 100 µM (inactive) | 17.7 µM (inactive)
O=C1C[C@@H](c2ccc(O)cc2)[C@@]2(O1)C(=O)O[C@H]([C@@H](O)CO)[C@@H]2O | > 100 µM (inactive) | > 100 µM (inactive) | > 100 µM (inactive) | > 100 µM (inactive) | > 100 µM (inactive) | > 100 µM (inactive) | > 100 µM (inactive) | > 100 µM (inactive) | > 100 µM (inactive) | > 100 µM (inactive) | > 100 µM (inactive) | > 100 µM (inactive) | > 100 µM (inactive) | > 100 µM (inactive) | > 100 µM (inactive) | > 100 µM (inactive) | > 100 | > 100 µM (inactive) | > 100 µM (inactive) | > 100 µM (inactive)
CC(C)(C)c1cc(C(=O)/C=C/c2ccc3c(c2)OCO3)cc(C(C)(C)C)c1O | 5.05 µM (inactive) | 5.28 µM (inactive) | 4.51 µM (inactive) | 15.2 µM (inactive) | 16.3 µM (inactive) | 6.04 µM (inactive) | 15.8 µM (inactive) | 6.62 µM (inactive) | 8.11 µM (inactive) | 6.44 µM (inactive) | 9.91 µM (inactive) | 3.07 µM (inactive) | 8.79 µM (inactive) | 18.6 µM (inactive) | 5.96 µM (inactive) | 25.6 µM (inactive) | 4.83 | 4.39 µM (inactive) | 5.7 µM (inactive) | 8.55 µM (inactive)
Brc1ccc2[nH]cc([C@@H]3CN[C@@H](c4c[nH]c5ccc(Br)cc45)CN3)c2c1 | 2.07 µM (inactive) | 3.66 µM (inactive) | 4.18 µM (inactive) | 7.55 µM (inactive) | 7.89 µM (inactive) | 7.52 µM (inactive) | 12.7 µM (inactive) | 3.94 µM (inactive) | 5.25 µM (inactive) | 10.6 µM (inactive) | 6.92 µM (inactive) | 1.82 µM (inactive) | 10.4 µM (inactive) | 13.7 µM (inactive) | 4.18 µM (inactive) | 1.36 µM (inactive) | 9.44 | 2.12 µM (inactive) | 3.72 µM (inactive) | 2.33 µM (inactive)
O=C(O)C#Cc1ccc([N+](=O)[O-])cc1 | > 100 µM (inactive) | > 100 µM (inactive) | > 100 µM (inactive) | > 100 µM (inactive) | > 100 µM (inactive) | > 100 µM (inactive) | > 100 µM (inactive) | > 100 µM (inactive) | > 100 µM (inactive) | > 100 µM (inactive) | > 100 µM (inactive) | > 100 µM (inactive) | > 100 µM (inactive) | > 100 µM (inactive) | > 100 µM (inactive) | > 100 µM (inactive) | > 100 | > 100 µM (inactive) | > 100 µM (inactive) | > 100 µM (inactive)
N=C(N)N/N=C/c1c(-c2ccc(N)cc2)nc2sccn12 | 21.2 µM (inactive) | 31.6 µM (inactive) | 23.3 µM (inactive) | > 100 µM (inactive) | 21.4 µM (inactive) | > 100 µM (inactive) | 24.8 µM (inactive) | 23.9 µM (inactive) | 24.2 µM (inactive) | 26.9 µM (inactive) | 20.9 µM (inactive) | 16.2 µM (inactive) | 34.7 µM (inactive) | > 100 µM (inactive) | 22.8 µM (inactive) | > 100 µM (inactive) | 36.9 | 30.8 µM (inactive) | 23.4 µM (inactive) | 26.9 µM (inactive)
CO[C@@H]1C=C[C@@]23c4cc5c(cc4C(O)N(CC2O)C3C1)OCO5 (stereo not given in full) | 2.62 µM (inactive) | 1.98 µM (inactive) | 2.97 µM (inactive) | 36.5 µM (inactive) | 4.91 µM (inactive) | 3.13 µM (inactive) | 3.66 µM (inactive) | 3.21 µM (inactive) | 3.14 µM (inactive) | 9.23 µM (inactive) | 4.19 µM (inactive) | 1.8 µM (inactive) | 7.36 µM (inactive) | 5.04 µM (inactive) | 4.33 µM (inactive) | 3.09 µM (inactive) | 3.8 | 4.18 µM (inactive) | 5.41 µM (inactive) | 3.33 µM (inactive)
Cc1[nH]c(-c2ccccc2)c2nc(N(C)C)oc(=O)c12 | > 100 µM (inactive) | > 100 µM (inactive) | > 100 µM (inactive) | > 100 µM (inactive) | > 100 µM (inactive) | > 100 µM (inactive) | > 100 µM (inactive) | > 100 µM (inactive) | > 100 µM (inactive) | > 100 µM (inactive) | > 100 µM (inactive) | > 100 µM (inactive) | > 100 µM (inactive) | > 100 µM (inactive) | > 100 µM (inactive) | > 100 µM (inactive) | > 100 | > 100 µM (inactive) | > 100 µM (inactive) | > 100 µM (inactive)
CN(C)CCn1c(=O)c2ccc(NCCNCCO)c3c(=O)c4ccccc4n(c1=O)c23 | 0.249 µM (active) | < 0.01 µM (active) | 0.0492 µM (active) | 0.0348 µM (active) | 0.298 µM (active) | 0.0467 µM (active) | 0.164 µM (active) | 0.0149 µM (active) | 0.14 µM (active) | 0.0428 µM (active) | 0.764 µM (active) | < 0.01 µM (active) | 0.0471 µM (active) | 0.815 µM (active) | 0.027 µM (active) | 0.03 µM (active) | 0.279 | < 0.0394 µM (active) | 0.0469 µM (active) | 0.0116 µM (active)
CC(=O)NC1C(OCc2ccccc2)OC(CO)C(O)C1OC(C)C(=O)NC(C)C(=O)NC(CCC(=O)NCCCCNc1c2ccccc2nc2cccc([N+](=O)[O-])c12)C(N)=O (stereo not given) | 0.0482 µM (active) | 0.00995 µM (active) | 0.00748 µM (active) | 0.0962 µM (active) | 0.336 µM (active) | 0.0286 µM (active) | 0.22 µM (active) | 0.0198 µM (active) | 0.277 µM (active) | 0.0512 µM (active) | 0.0202 µM (active) | 0.027 µM (active) | 0.0357 µM (active) | 0.163 µM (active) | 0.00741 µM (active) | 0.0176 µM (active) | 0.00893 | 0.0118 µM (active) | 0.196 µM (active) | 0.0119 µM (active)
CCOC(=O)NC(Nc1ccc(C)cc1)(C(F)(F)F)C(F)(F)F | > 100 µM (inactive) | > 100 µM (inactive) | > 100 µM (inactive) | > 100 µM (inactive) | > 100 µM (inactive) | > 100 µM (inactive) | > 100 µM (inactive) | > 100 µM (inactive) | > 100 µM (inactive) | > 100 µM (inactive) | > 100 µM (inactive) | > 100 µM (inactive) | > 100 µM (inactive) | > 100 µM (inactive) | > 100 µM (inactive) | > 100 µM (inactive) | > 100 | > 100 µM (inactive) | > 100 µM (inactive) | > 100 µM (inactive)
O=Cc1ccc(-c2nccc3c2[nH]c2ccccc23)o1 | > 100 µM (inactive) | 55 µM (inactive) | 55.7 µM (inactive) | 1.31 µM (inactive) | 12.3 µM (inactive) | 26.9 µM (inactive) | 97.7 µM (inactive) | > 89.9 µM (inactive) | 91.6 µM (inactive) | > 100 µM (inactive) | 7.36 µM (inactive) | 74.8 µM (inactive) | > 100 µM (inactive) | > 100 µM (inactive) | > 100 µM (inactive) | 44.6 µM (inactive) | > 100 | > 81.8 µM (inactive) | 20.4 µM (inactive) | > 100 µM (inactive)
Brc1ccc2c(-c3nc(-c4c[nH]c5ccc(Br)cc45)cs3)c[nH]c2c1 | 2.62 µM (inactive) | 0.887 µM (active) | 3.67 µM (inactive) | 1.94 µM (inactive) | 2.96 µM (inactive) | 2.87 µM (inactive) | 15.4 µM (inactive) | 2.24 µM (inactive) | 3.92 µM (inactive) | 5.06 µM (inactive) | 5.51 µM (inactive) | 6.43 µM (inactive) | 4.82 µM (inactive) | 11.3 µM (inactive) | 4.61 µM (inactive) | 3.44 µM (inactive) | 3.39 | 3.43 µM (inactive) | 3.92 µM (inactive) | 1.67 µM (inactive)
